The experiment deals with SH-SY5Y neuroblastoma cells. The experiment is described as follows: Cell viability screen (CCK-8), SH-SY5Y cells. The class given is cell-based. The conditions noted are these: Homo sapiens, CCK-8, 96 hours, read-out: IC50, inhibition of cell viability. As for the experimental part: FIGS. 2A-2H. Dose response curves. Does response curves for cell lines treated with 6, 10.5, 18.6, 32.4, 57.5 and 100 μM of compound (log) for 96 hours using % cell viability derived from CCK-8 absorbance readings at 450 nm (n=3, mean±SEM). A DMSO equivalent control (n=2±SEM) was also included for each cell line tested: Ea.hy.926 endothelial cells (Endo), LNCaP androgen dependent metastatic prostate cancer cells, TC2-Ras mouse prostate cancer cells, PC-3 androgen independent metastatic prostate cancer cells, and SH-SY5Y neruoblastoma cells. […]
Cell Viability Screen. […] Cell viability was measured by using the cell counting kit-8 (CCK-8, Dojindo). […] CCK-8 absorbance was measured at 450 nm using a GloMax Multimode Reader (Promega). Readings were performed the day after seeding to normalize for variations in cell seeding and after 96 hours of compound treatment. After each reading, CCK-8 media was removed and replaced with media containing compound as described previously. […] As described previously, an initial baseline CCK-8 reading was performed at 24 hours post seeding to correct for variations in seeding density. First, 450 nm values for each well were subtracted from media only readings to correct for baseline absorbance. Then, the 96 hour readings were normalized to their respective 24 hour readings to control for seeding variation. […]

By IC50 is commonly meant the concentration needed to halve the response being measured. With `O=C(c1cc(F)cc2c1OCOC2)N1CCN(C2c3ccccc3-c3ccccc32)CC1` [Compound C3, [4-(9h-fluoren-9-yl)piperazino](6-fluoro-4h-1,3-benzodioxin-8-yl)methanone], the 50% inhibitory concentration (IC50) was 18.6 µM.

The values are drawn from patent publication US11022604B2, “Dock derived compound against laminin receptor (37 LR) and uses thereof” (Purdue Research Foundation, priority 2017, dated 2021).
